The values below come from patent US8546375B2, “(3-(4-(aminomethyl)phenoxy or phenylthio)azetidin-1-yl)(5-phenyl-1,3,4-oxadiazol-2-yl)methanone compounds” (AstraZeneca AB, priority 2010, dated 2013).

For this experiment, the target named is T1, Melanin Concentrating Hormone Receptor 1 (MCHR1) (Homo sapiens, UniProt Q99705).
T1 construct: expressed in transfected cells
T1 sequence (Q99705 whole entry): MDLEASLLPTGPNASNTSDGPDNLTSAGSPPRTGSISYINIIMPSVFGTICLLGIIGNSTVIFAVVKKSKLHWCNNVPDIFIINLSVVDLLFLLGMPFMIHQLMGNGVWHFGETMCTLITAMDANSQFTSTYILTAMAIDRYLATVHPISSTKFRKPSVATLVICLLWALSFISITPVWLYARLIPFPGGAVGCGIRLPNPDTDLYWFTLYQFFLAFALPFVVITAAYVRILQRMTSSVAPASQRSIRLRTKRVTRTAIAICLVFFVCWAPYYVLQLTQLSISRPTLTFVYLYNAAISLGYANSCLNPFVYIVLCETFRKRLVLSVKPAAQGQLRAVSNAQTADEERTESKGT
Put plainly: MCHR1 Receptor Activation Assay (GTPγ^35S). Format: biochemical. To be noted: read-out: GTPγ^35S IC50.
As usually defined, the IC50 is the concentration needed to halve the response being measured. For `COc1ccc(-c2nnc(C(=O)N3CC(Oc4ccc(CN5CCN(C(C)=O)CC5)cc4)C3)o2)cc1` [Example 24, 1-(4-(4-(1-(5-(4-Methoxyphenyl)-1,3,4-oxadiazole-2-carbonyl)azetidin-3-yloxy)benzyl)piperazin-1-yl)ethanone], the half-inhibitory concentration (IC50) amounted to 44 nM.

For `CC(=O)N1CCN(Cc2ccc(OC3CN(C(=O)c4nnc(-c5ccc(Cl)cc5)o4)C3)cc2)CC1` [Example 25, 1-(4-(4-(1-(5-(4-Chlorophenyl)-1,3,4-oxadiazole-2-carbonyl)azetidin-3-yloxy)benzyl)piperazin-1-yl)ethanone], the IC50 stood at 34 nM.

In the case of `CN(C)Cc1ccc(OC2CN(C(=O)c3nnc(-c4ccccc4)o3)C2)cc1F` [Example 26, (3-(4-((Dimethylamino)methyl)-3-fluorophenoxy)azetidin-1-yl)(5-phenyl-1,3,4-oxadiazol-2-yl)methanone], the IC50 was found to be 30 nM.

On to `COc1ccc(-c2nnc(C(=O)N3CC(Oc4ccc(CN(C)C)c(F)c4)C3)o2)cc1` [Example 27, (3-(4-((Dimethylamino)methyl)-3-fluorophenoxy)azetidin-1-yl)(5-(4-methoxyphenyl)-1,3,4-oxadiazol-2-yl)methanone], for which the IC50 came to 21 nM.

Consider `Cc1ccc(-c2nnc(C(=O)N3CC(Oc4ccc(CN(C)C)c(F)c4)C3)o2)cc1` [Example 28, (3-(4-((Dimethylamino)methyl)-3-fluorophenoxy)azetidin-1-yl)(5-p-tolyl-1,3,4-oxadiazol-2-yl)methanone], for which the IC50 worked out at 27 nM.

Regarding `CN1CCN(Cc2ccc(OC3CN(C(=O)c4nnc(-c5ccccc5)o4)C3)cc2F)CC1` [Example 29, (3-(3-Fluoro-4-((4-methylpiperazin-1-yl)methyl)phenoxy)azetidin-1-yl)(5-phenyl-1,3,4-oxadiazol-2-yl)methanone], the IC50 came to 86 nM.

Regarding `O=C(c1nnc(-c2ccccc2)o1)N1CC(Oc2ccc(CN3CCCC3)c(F)c2)C1` [Example 31, (3-(3-Fluoro-4-(pyrrolidin-1-ylmethyl)phenoxy)azetidin-1-yl)(5-phenyl-1,3,4-oxadiazol-2-yl)methanone], the IC50 was 20 nM.

As to `COc1ccc(-c2nnc(C(=O)N3CC(Oc4ccc(CN5CCCC5)c(F)c4)C3)o2)cc1` [Example 32, (3-(3-Fluoro-4-(pyrrolidin-1-ylmethyl)phenoxy)azetidin-1-yl)(5-(4-methoxyphenyl)-1,3,4-oxadiazol-2-yl)methanone], the half-maximal inhibitory concentration (IC50) is 15 nM.

On to `CN(C)Cc1ccc(OC2CN(C(=O)c3nnc(-c4ccccc4)o3)C2)cc1` [Example 33, (3-(4-((Dimethylamino)methyl)phenoxy)azetidin-1-yl)(5-phenyl-1,3,4-oxadiazol-2-yl)methanone], for which the IC50 came to 34 nM.

Consider `CSc1ccc(-c2nnc(C(=O)N3CC(Oc4ccc(CN(C)C)cc4)C3)o2)cc1` [Example 34, (3-(4-((Dimethylamino)methyl)phenoxy)azetidin-1-yl)(5-(4-(methylthio)phenyl)-1,3,4-oxadiazol-2-yl)methanone], for which the IC50 came to 18 nM.

Turning to `CN(C)Cc1ccc(OC2CN(C(=O)c3nnc(-c4ccc(C(F)(F)F)cc4)o3)C2)cc1` [Example 35, (3-(4-((dimethylamino)methyl)phenoxy)azetidin-1-yl)(5-(4-(trifluoromethyl)phenyl)-1,3,4-oxadiazol-2-yl)methanone], the IC50 turned out to be 19 nM.

For the molecule `CN(C)Cc1ccc(OC2CN(C(=O)c3nnc(-c4ccc(Cl)cc4)o3)C2)cc1` [Example 36, (5-(4-Chlorophenyl)-1,3,4-oxadiazol-2-yl)(3-(4-((dimethylamino)methyl)phenoxy)azetidin-1-yl)methanone], the IC50 is 13 nM.

Regarding `CN(C)Cc1ccc(OC2CN(C(=O)c3nnc(-c4ccc(OC(F)F)cc4)o3)C2)cc1` [Example 37, (5-(4-(Difluoromethoxy)phenyl)-1,3,4-oxadiazol-2-yl)(3-(4-((dimethylamino)methyl)phenoxy)azetidin-1-yl)methanone], the IC50 turned out to be 17 nM.

Consider `COc1ccc(-c2nnc(C(=O)N3CC(Oc4ccc(CN(C)C)cc4)C3)o2)cc1` [Example 38, (3-(4-((Dimethylamino)methyl)phenoxy)azetidin-1-yl)(5-(4-methoxyphenyl)-1,3,4-oxadiazol-2-yl)methanone], for which the IC50 is 27 nM.

Regarding `CN(C)Cc1ccc(OC2CN(C(=O)c3nnc(-c4ccccc4)o3)C2)c(F)c1F` [Example 39, (3-(4-((Dimethylamino)methyl)-2,3-difluorophenoxy)azetidin-1-yl)(5-phenyl-1,3,4-oxadiazol-2-yl)methanone], the IC50 worked out at 49 nM.

In the case of `COc1ccc(-c2nnc(C(=O)N3CC(Oc4ccc(CN(C)C)c(F)c4F)C3)o2)cc1` [Example 40, (3-(4-((Dimethylamino)methyl)-2,3-difluorophenoxy)azetidin-1-yl)(5-(4-methoxyphenyl)-1,3,4-oxadiazol-2-yl)methanone], the IC50 was 27 nM.

In the case of `COc1ccc(-c2nnc(C(=O)N3CC(Oc4ccc(CN5CCC5)cc4)C3)o2)cc1` [Example 41, (3-(4-(Azetidin-1-ylmethyl)phenoxy)azetidin-1-yl)(5-(4-methoxyphenyl)-1,3,4-oxadiazol-2-yl)methanone], the IC50 came to 25 nM.

Turning to `O=C(c1nnc(-c2ccccc2)o1)N1CC(Oc2ccc(CN3CCC3)cc2)C1` [Example 42, (3-(4-(azetidin-1-ylmethyl)phenoxy)azetidin-1-yl)(5-phenyl-1,3,4-oxadiazol-2-yl)methanone], the IC50 is 26 nM.

In the case of `Cc1cc(OC2CN(C(=O)c3nnc(-c4ccc(OC(F)F)cc4)o3)C2)ccc1CN(C)C` [Example 43, (5-(4-(Difluoromethoxy)phenyl)-1,3,4-oxadiazol-2-yl)(3-(4-((dimethylamino)methyl)-3-methylphenoxy)azetidin-1-yl)methanone], the IC50 is 11 nM.

Consider `Cc1cc(OC2CN(C(=O)c3nnc(-c4ccc(Cl)cc4)o3)C2)ccc1CN(C)C` [Example 44, (5-(4-Chlorophenyl)-1,3,4-oxadiazol-2-yl)(3-(4-((dimethylamino)methyl)-3-methylphenoxy)azetidin-1-yl)methanone], for which the IC50 is 10 nM.

In the case of `O=C(c1nnc(-c2ccccc2)o1)N1CC(Oc2ccc(CN3CCCC3)c(C(F)(F)F)c2)C1` [Example 45, (5-Phenyl-1,3,4-oxadiazol-2-yl)(3-(4-(pyrrolidin-1-ylmethyl)-3-(trifluoromethyl)phenoxy)azetidin-1-yl)methanone], the IC50 was found to be 16 nM.

As for `COc1ccc(-c2nnc(C(=O)N3CC(Oc4ccc(CN5CCCC5)c(C(F)(F)F)c4)C3)o2)cc1` [Example 46, (5-(4-Methoxyphenyl)-1,3,4-oxadiazol-2-yl)(3-(4-(pyrrolidin-1-ylmethyl)-3-(trifluoromethyl)phenoxy)azetidin-1-yl)methanone], the IC50 turned out to be 18 nM.

In the case of `COc1ccc(-c2nnc(C(=O)N3CC(Oc4ccc(CN(C)C)c(Cl)c4)C3)o2)cc1` [Example 47, (3-(3-Chloro-4-((dimethylamino)methyl)phenoxy)azetidin-1-yl)(5-(4-methoxyphenyl)-1,3,4-oxadiazol-2-yl)methanone], the IC50 came out at 19 nM.

On to `CN(C)Cc1ccc(OC2CN(C(=O)c3nnc(-c4ccccc4)o3)C2)cc1Cl` [Example 48, (3-(3-Chloro-4-((dimethylamino)methyl)phenoxy)azetidin-1-yl)(5-phenyl-1,3,4-oxadiazol-2-yl)methanone], for which the IC50 amounted to 18 nM.

With `COc1ccc(-c2nnc(C(=O)N3CC(Oc4ccc(CN5CCN(C)CC5)c(Cl)c4)C3)o2)cc1` [Example 49, (3-(3-Chloro-4-((4-methylpiperazin-1-yl)methyl)phenoxy)azetidin-1-yl)(5-(4-methoxyphenyl)-1,3,4-oxadiazol-2-yl)methanone], the IC50 was determined as 37 nM.

In the case of `CN1CCN(Cc2ccc(OC3CN(C(=O)c4nnc(-c5ccccc5)o4)C3)cc2Cl)CC1` [Example 50, (3-(3-Chloro-4-((4-methylpiperazin-1-yl)methyl)phenoxy)azetidin-1-yl)(5-phenyl-1,3,4-oxadiazol-2-yl)methanone], the concentration for half-maximal inhibition (IC50) stood at 35 nM.

On to `CN(C)Cc1ccc(OC2CN(C(=O)c3nnc(-c4ccc(OC(F)F)cc4)o3)C2)cc1F` [Example 51, (5-(4-(Difluoromethoxy)phenyl)-1,3,4-oxadiazol-2-yl)(3-(4-((dimethylamino)methyl)-3-fluorophenoxy)azetidin-1-yl)methanone], for which the IC50 was 19 nM.

With `COc1ccc(-c2nnc(C(=O)N3CC(Oc4ccc(CN5CCCC5)c(OC)c4C)C3)o2)cc1` [Example 52, (3-(3-Methoxy-2-methyl-4-(pyrrolidin-1-ylmethyl)phenoxy)azetidin-1-yl)(5-(4-methoxyphenyl)-1,3,4-oxadiazol-2-yl)methanone], the IC50 is 24 nM.

As for `CNCc1ccc(OC2CN(C(=O)c3nnc(-c4ccccc4)o3)C2)cc1C` [Example 53, (3-(3-Methyl-4-((methylamino)methyl)phenoxy)azetidin-1-yl)(5-phenyl-1,3,4-oxadiazol-2-yl)methanone], the IC50 turned out to be 28 nM.

Consider `CNCc1ccc(OC2CN(C(=O)c3nnc(-c4ccc(OC)cc4)o3)C2)c(C)c1` [Example 54, (5-(4-Methoxyphenyl)-1,3,4-oxadiazol-2-yl)(3-(2-methyl-4-((methylamino)methyl)phenoxy)azetidin-1-yl)methanone], for which the half-maximal inhibitory concentration (IC50) stood at 31 nM.

For `COc1ccc(-c2nnc(C(=O)N3CC(Oc4ccc(CN5CC(OC)C5)cc4)C3)o2)cc1` [Example 55, (3-(4-((3-Methoxyazetidin-1-yl)methyl)phenoxy)azetidin-1-yl)(5-(4-methoxyphenyl)-1,3,4-oxadiazol-2-yl)methanone], the half-inhibitory concentration (IC50) is 22 nM.

Consider `COc1ccc(-c2nnc(C(=O)N3CC(Oc4ccc(CN5CC(O)(C6CC6)C5)cc4)C3)o2)cc1` [Example 56, (3-(4-((3-Cyclopropyl-3-hydroxyazetidin-1-yl)methyl)phenoxy)azetidin-1-yl)(5-(4-methoxyphenyl)-1,3,4-oxadiazol-2-yl)methanone], for which the IC50 is 13 nM.

Consider `COC1CN(Cc2ccc(OC3CN(C(=O)c4nnc(-c5ccccc5)o4)C3)c(Cl)c2)C1` [Example 57, (3-(2-Chloro-4-((3-methoxyazetidin-1-yl)methyl)phenoxy)azetidin-1-yl)(5-phenyl-1,3,4-oxadiazol-2-yl)methanone], for which the IC50 was found to be 18 nM.
